Measurements taken from patent US5300506A, “Indolylalkyl derivatives of pyrimidinylpiperazine for treating vascular headache” (Bristol-Myers Squibb Company, priority 1992, dated 1994).
Structures can show the parent of a compound that is named as a salt.

Test system: migraine sufferers
Assay: not given
Conditions: migraine patients; cited from earlier work

Structure (SMILES)	effect on migraine headache (in words)
NCCc1c[nH]c2ccc(O)cc12 [serotonin creatinine sulfate]	induced headache can be alleviated
NCCc1c[nH]c2ccc(O)cc12 [serotonin]	effective in treating migraine attacks
COC(=O)[C@H]1[C@H]2C[C@@H]3c4[nH]c5cc(OC)ccc5c4CCN3C[C@H]2C[C@@H](OC(=O)c2cc(OC)c(OC)c(OC)c2)[C@@H]1OC [reserpine]	induces a typical migraine-type headache

Test system: plasma serotonin
Assay: not given
Conditions: intramuscular injection; cited from earlier work

Structure (SMILES)	effect on plasma serotonin (in words)
COC(=O)[C@H]1[C@H]2C[C@@H]3c4[nH]c5cc(OC)ccc5c4CCN3C[C@H]2C[C@@H](OC(=O)c2cc(OC)c(OC)c(OC)c2)[C@@H]1OC [reserpine]	lowers plasma serotonin

Test system: not given
Assay: not given
Conditions: use in headache treatment; cited from earlier work

Structure (SMILES)	side-effects / dependence (in words)
CC[C@@H](CO)NC(=O)[C@@H]1C=C2c3cccc4c3c(cn4C)C[C@H]2N(C)C1 [methysergide]	severe use-limiting side-effects with long term usage
NCCc1c[nH]c2ccc(O)cc12 [serotonin]	restlessness, nausea, faintness, hyperpnea, facial flushing and parasthesias
CN1C[C@H](C(=O)N[C@]2(C)O[C@@]3(O)[C@@H]4CCCN4C(=O)[C@H](Cc4ccccc4)N3C2=O)C=C2c3cccc4[nH]cc(c34)C[C@H]21 [ergotamine]	cause dependence with extended use

Biological target: T1, 5-HT1D (Bos taurus, UniProt F1MGM3)
T1 construct: from tissue
Assay: 5-HT1D binding site affinity (tritiated serotonin; methodology of Heuring and Peroutka with minor modifications)
Conditions: in vitro
Procedure: Determination of 5-HT1D binding properties was accomplished employing methodology such as that described by Heuring and Peroutka, J. Neurosci., 7(3), 1987, 894-903; with only minor modifications. In vitro IC50 (nM) test values were determined for the compounds of this invention employing tritiated serotonin.

T1 sequence (F1MGM3 1-403): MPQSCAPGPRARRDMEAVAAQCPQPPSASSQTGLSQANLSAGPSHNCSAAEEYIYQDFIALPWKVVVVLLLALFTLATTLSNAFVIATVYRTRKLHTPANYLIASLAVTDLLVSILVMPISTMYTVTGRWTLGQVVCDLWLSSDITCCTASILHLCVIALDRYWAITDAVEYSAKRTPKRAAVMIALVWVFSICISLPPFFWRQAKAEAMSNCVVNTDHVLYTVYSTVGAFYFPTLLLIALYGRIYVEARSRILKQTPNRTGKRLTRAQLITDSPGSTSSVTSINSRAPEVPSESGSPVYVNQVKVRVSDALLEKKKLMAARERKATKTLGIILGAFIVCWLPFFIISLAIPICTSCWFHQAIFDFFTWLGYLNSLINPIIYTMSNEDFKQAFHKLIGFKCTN

Structure (SMILES)	IC50 [nM]
CCS(=O)(=O)N(C)c1ccc2[nH]cc(CCCN3CCN(c4ncncc4OC)CC3)c2c1 [Example 68]	12.9
COc1cncnc1N1CCN(CCCc2c[nH]c3ccccc23)CC1C (stereo not drawn) [Example 62]	4.2
CCOc1ccc2[nH]cc(CCCN3CCN(c4ncncc4OC)CC3)c2c1 [Example 71]	2.2
CCS(=O)(=O)Nc1ccc2[nH]cc(CCCN3CCN(c4ncncc4OC)CC3)c2c1 [Example 67]	13.7
COc1cncnc1N1CCN(CCCc2c[nH]c3ccccc23)CC1 [Example 61]	2.9
CCS(=O)(=O)N(C)c1ccc2[nH]cc(CCCN3CCN(c4ncncc4OC)C(C)C3)c2c1 (stereo not drawn) [Example 69]	19.1
COc1cncnc1N1CCN(CCCc2c[nH]c3c(F)ccc(F)c23)CC1 [Example 75]	5.1
COc1cncnc1N1CCN(CCCc2c[nH]c3cc(F)c(F)cc23)CC1 [Example 74]	29
COc1ccc2[nH]cc(CCCN3CCN(c4ncncc4OC)CC3)c2c1 [Example 73]	1.1
COc1cncnc1N1CCN(CCCc2c[nH]c3ccc(NS(C)(=O)=O)cc23)CC1 [Example 63]	5.2
COc1cncnc1N1CCN(CCCc2c[nH]c3ccc(N(C)S(C)(=O)=O)cc23)CC1 [Example 65]	4.9
COc1cncnc1N1CCN(CCCc2c[nH]c3ccc(N(C)S(C)(=O)=O)cc23)CC1C (stereo not drawn) [Example 66]	12
COc1cncnc1N1CCN(CCCc2c[nH]c3ccc(F)cc23)CC1 [Example 60]	3
CCS(=O)(=O)Nc1ccc2[nH]cc(CCCN3CCN(c4ncncc4OC)C(C)C3)c2c1 (stereo not drawn) [Example 70]	17.1
COc1cncnc1N1CCN(CCCc2c[nH]c3ccc(OCc4ccccc4)cc23)CC1 [Example 72]	14.3
COc1cncnc1N1CCN(CCCc2c[nH]c3c(F)cc(F)cc23)CC1 [Example 76]	8.1
COc1cncnc1N1CCN(C(C)CCc2c[nH]c3ccccc23)CC1 (stereo not drawn) [Example 53]	5
CCOc1cncnc1N1CCN(CCCc2c[nH]c3ccccc23)CC1 [Example 52, 4-(5-Ethoxy-4-pyrimidinyl)-1-[3-(1H-indol-3-yl)propyl]piperazine hydrochloride hydrate]	2
CCC(CCc1c[nH]c2ccccc12)N1CCN(c2ncncc2OC)CC1 (stereo not drawn) [Example 54, 3-[3-[4-(5-Methoxy-4-pyrimidinyl)-1-piperazinyl]pentyl]indole]	20.5
COc1cncnc1N1CCN(CCCc2c[nH]c3ccc(O)cc23)CC1 [Example 55, 1-[3-(5-Hydroxy-1H-indol-3-yl)propyl]-4-(5-methoxy-4-pyrimidinyl)piperazine]	0.8
